In paper PMC4496498, “Radiosynthesis, In Vivo Biological Evaluation, and Imaging of Brain Lesions with [^123I]-CLINME, a New SPECT Tracer for the Translocator Protein” (Disease Markers, 2015):
Like-named read-outs stand apart in the source and are kept apart here.

Tests used:
TSPO [1] = target: T1, TSPO (Rattus norvegicus, UniProt P16257); parameters: from tissue; method as in PMID 17680643; settings: same animal model; cited from earlier work
TPSO [2] = settings: cited from earlier work
TSPO [3] = target: T1, TSPO; settings: competing drug 1 mg/Kg i.v. 5 min prior to tracer; rats, 30 min p.i.; vs controls
Experimental: The saturation effect of [^123I]-CLINME uptake was studied in competition experiments by injecting CLINME (1 mg/Kg), 5 min prior to [^123I]-CLINME (0.7 MBq, 10 pmoles in 0.1 mL of 0.9% saline), via the tail vein, to 8–10-week-old male SD rats.
The drugs were dissolved in dimethyl sulfoxide/saline (1 : 5) and injected intravenously 5 min prior to [^123I]-CLINME. Groups of rats (n = 3-4) were sacrificed by CO2 administration followed by cervical fracture 30 min after administration of [^123I]-CLINME and peripheral organs (liver, spleen, lung, heart, kidney, and adrenals), blood, olfactory bulbs, and the remainder of the brain were removed. The radioactivity concentrations were calculated as described previously. Results were analysed by one-way analysis of variance (ANOVA) followed by Tukey's post hoc test for comparing the tissue radioactivity concentrations in the treated animals (n = 3-4) and in the controls (n = 6). The criterion for significance was P < 0.05.

[4] = Lipophilicity, log P estimated from HPLC retention times; format: physicochemical; settings: pH 7.5
Excerpt: The log P values were estimated by comparing HPLC retention times of test compounds with retention times of standards having known log P values as described.

TSPO [5] = target: T1, TSPO; assay: In vitro autoradiography with [^125I]-CLINME on lesioned brain tissue; format: binding, SD rats; parameters: from tissue; host or cells: male Sprague-Dawley rats: peripheral organs and brain in vivo; AMPA-lesioned striatum; brain sections; settings: 20 μM drug, 16 nM [^125I]-CLINME
TPSO [6] = settings: rats, dose of 5 mg/Kg; cited from earlier work
TPSO [7] = settings: cited from earlier work; remark: listed apart in the source
TSPO [8] = target: T1, TSPO; assay: In vitro binding assay, TSPO, [^3H]-PK11195; parameters: from tissue
Experimental: (§1) […] (IC50) of CLINME for the TPSO and for the central benzodiazepine receptor (CBR) was determined as described previously. The IC50 values were converted to the inhibition constant, Ki, using Cheng-Prusoff equation.

[9] = target: central benzodiazepine receptor (CBR); assay: In vitro binding assay, central benzodiazepine receptor; settings: membranes from kidney and brain cortex; read-out: inhibition constant for the CBR
Experimental: as §1

TSPO [10] = target: T1, TSPO; assay: In vitro binding assay, TSPO, [^3H]-Ro 5-4864; parameters: from tissue
Experimental: as §1

CCN([11CH3])C(=O)Cc1c(-c2ccc(I)cc2)nc2ccc(Cl)cn12 [[^11C]-CLINME]
ratio lesion versus contralateral striatum, PET (TSPO [1]): 2.14 ± 0.09

CCC(C)N([11CH3])C(=O)c1cc2ccccc2c(-c2ccccc2Cl)n1 (centres unmarked) [[^11C]-PK11195]
ratio lesion versus contralateral striatum, PET (TSPO [1]): 1.62 ± 0.05

CCN(CC)C(=O)Cc1c(-c2ccc(I)cc2)nc2ccc(Cl)cn12 [CLINDE]
selectivity for the TPSO over the CBR (TPSO [2]): 200 fold

CCCN(CCC)C(=O)Cc1c(-c2ccc(Cl)cc2)nc2ccc(Cl)cn12 [alpidem]
selectivity for the TPSO over the CBR (TPSO [2]): 20 fold

CCC(C)N(C)C(=O)c1cc2ccccc2c(-c2ccccc2Cl)n1 (centres unmarked) [PK11195]
decrease of [^123I]-CLINME uptake in the heart (TSPO [3]): 87% | decrease of [^123I]-CLINME uptake in the kidney (TSPO [3]): 72% | decrease of [^123I]-CLINME uptake in the lungs (TSPO [3]): 81% | decrease of [^123I]-CLINME uptake in the olfactory bulbs (TSPO [3]): 36% | increase of [^123I]-CLINME uptake in the blood (TSPO [3]): 29% | chromatographic logP ([4]; HPLC retention times compared with standards of known log P): 3.35 | effect of coincubation on the differential (lesioned vs contralateral) binding of [^125I]-CLINME (TSPO [5]): eliminated | block of the uptake of [^123I]-PK11195 in the adrenals (TPSO [6]): 85%

CCN(CC)C(=O)Cc1c(-c2ccc([123I])cc2)nc2ccc(Cl)cn12 [[^123I]-CLINDE]
ratio of uptake olfactory bulbs versus rest of brain (TPSO [7]; at 8 h): 6

CCN(C)C(=O)Cc1c(-c2ccc(I)cc2)nc2ccc(Cl)cn12 [CLINME, 2-(6-Chloro-2-(4-iodophenyl)imidazo[1,2-a]pyridin-3-yl)-N-ethyl-N-methylacetamide]
decrease of [^123I]-CLINME uptake in the heart (TSPO [3]): 86% | decrease of [^123I]-CLINME uptake in the kidney (TSPO [3]): 71% | decrease of [^123I]-CLINME uptake in the lungs (TSPO [3]): 76% | decrease of [^123I]-CLINME uptake in the olfactory bulbs (TSPO [3]): 38% | increase of [^123I]-CLINME uptake in the blood (TSPO [3]): 45% | Ki (TSPO [8]): 1.6 ± 0.2 nM | selectivity for the TPSO over the CBR (TSPO [8]; in vitro): 110 fold | melting point: 65 to 67 °C | Ki [9]: 183 ± 20 nM | chromatographic logP [4]: 3.27 | effect of coincubation on the differential (lesioned vs contralateral) binding of [^125I]-CLINME (TSPO [5]): eliminated | Ki (TSPO [10]): 4.5 ± 0.6 nM

COc1ccc(OCC[18F])c(CN(C(C)=O)c2cc(F)ccc2Oc2ccccc2)c1 [[^18F]FE-DAA1106]
ratio of uptake olfactory bulbs versus rest of brain (TPSO [7]): 3.5
